Laboratory results as given in ChEMBL document CHEMBL5113538, “Discovery of Novel Allosteric EGFR L858R Inhibitors for the Treatment of Non-Small-Cell Lung Cancer as a Single Agent or in Combination with Osimertinib” (J Med Chem, 2022).
pIC50: −log10 of the molar value.

Key:
[1] = AUC(0 to t) in CD1 mouse at 10 mg/kg, po administered as single dose measured after 24 hrs by LC-MS/MS analysis; format: ADME, organism-based; design: time 24 hrs, dose 10 mg/kg, route po; conditions: in vivo
[2] = molecular target: T1, D(2) dopamine receptor (Homo sapiens, UniProt P14416); test: Inhibition of dopamine D2 receptor (unknown origin) at 10 uM relative to control
T1 sequence (P14416 whole entry): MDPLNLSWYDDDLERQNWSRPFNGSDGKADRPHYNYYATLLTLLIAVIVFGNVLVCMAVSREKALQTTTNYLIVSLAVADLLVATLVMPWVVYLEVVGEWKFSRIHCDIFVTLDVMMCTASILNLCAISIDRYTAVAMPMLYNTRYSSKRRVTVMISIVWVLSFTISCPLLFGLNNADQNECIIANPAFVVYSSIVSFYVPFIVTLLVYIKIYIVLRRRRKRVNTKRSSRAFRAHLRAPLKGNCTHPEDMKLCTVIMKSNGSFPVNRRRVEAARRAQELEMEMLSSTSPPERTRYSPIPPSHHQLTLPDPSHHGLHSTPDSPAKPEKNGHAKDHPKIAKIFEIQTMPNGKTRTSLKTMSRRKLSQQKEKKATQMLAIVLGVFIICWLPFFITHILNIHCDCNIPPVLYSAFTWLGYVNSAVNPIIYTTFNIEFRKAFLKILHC

[3] = molecular target: T1, D(2) dopamine receptor; test: Inhibition of dopamine D2 receptor (unknown origin)
[4] = Volume of distribution at steady state in CD1 mouse at 1 mg/kg, iv administered as single dose measured after 24 hrs by LC-MS/MS analysis; format: ADME, organism-based; conditions: in vivo, read-out: Vdss
[5] = system: NCI-H1975; test: Antitumor activity against human NCI-H1975 cells harboring EGFR L858R/T790M mutant xenografted in Balb/c nude mouse assessed as in tumor growth inhibition at 10 mg/kg, po administered once daily measured after 14 days in presence of osimertinib; format: functional; conditions: NCI-H1975, 336 h, time 14 day, read-out: TGI
[6] = Toxicity in Balb/c nude mouse allografted with mouse BaF3 cells harboring EGFR L858R/C797S mutant assessed as change in body weight at 10 mg/kg, po administered twice daily for 20 days; format: organism-based; conditions: in vivo, 480 h, time 20 day
[7] = Terminal half life in CD1 mouse at 1 mg/kg, iv administered as single dose measured after 24 hrs by LC-MS/MS analysis; format: ADME, organism-based; conditions: in vivo, read-out: beta t1/2 (converted)
[8] = molecular target: Epidermal growth factor receptor (Homo sapiens, UniProt P00533, C797S/L858R/T790M)
Epidermal growth factor receptor, sequence (P00533 25-1210 T790M/C797S/L858R limits assumed): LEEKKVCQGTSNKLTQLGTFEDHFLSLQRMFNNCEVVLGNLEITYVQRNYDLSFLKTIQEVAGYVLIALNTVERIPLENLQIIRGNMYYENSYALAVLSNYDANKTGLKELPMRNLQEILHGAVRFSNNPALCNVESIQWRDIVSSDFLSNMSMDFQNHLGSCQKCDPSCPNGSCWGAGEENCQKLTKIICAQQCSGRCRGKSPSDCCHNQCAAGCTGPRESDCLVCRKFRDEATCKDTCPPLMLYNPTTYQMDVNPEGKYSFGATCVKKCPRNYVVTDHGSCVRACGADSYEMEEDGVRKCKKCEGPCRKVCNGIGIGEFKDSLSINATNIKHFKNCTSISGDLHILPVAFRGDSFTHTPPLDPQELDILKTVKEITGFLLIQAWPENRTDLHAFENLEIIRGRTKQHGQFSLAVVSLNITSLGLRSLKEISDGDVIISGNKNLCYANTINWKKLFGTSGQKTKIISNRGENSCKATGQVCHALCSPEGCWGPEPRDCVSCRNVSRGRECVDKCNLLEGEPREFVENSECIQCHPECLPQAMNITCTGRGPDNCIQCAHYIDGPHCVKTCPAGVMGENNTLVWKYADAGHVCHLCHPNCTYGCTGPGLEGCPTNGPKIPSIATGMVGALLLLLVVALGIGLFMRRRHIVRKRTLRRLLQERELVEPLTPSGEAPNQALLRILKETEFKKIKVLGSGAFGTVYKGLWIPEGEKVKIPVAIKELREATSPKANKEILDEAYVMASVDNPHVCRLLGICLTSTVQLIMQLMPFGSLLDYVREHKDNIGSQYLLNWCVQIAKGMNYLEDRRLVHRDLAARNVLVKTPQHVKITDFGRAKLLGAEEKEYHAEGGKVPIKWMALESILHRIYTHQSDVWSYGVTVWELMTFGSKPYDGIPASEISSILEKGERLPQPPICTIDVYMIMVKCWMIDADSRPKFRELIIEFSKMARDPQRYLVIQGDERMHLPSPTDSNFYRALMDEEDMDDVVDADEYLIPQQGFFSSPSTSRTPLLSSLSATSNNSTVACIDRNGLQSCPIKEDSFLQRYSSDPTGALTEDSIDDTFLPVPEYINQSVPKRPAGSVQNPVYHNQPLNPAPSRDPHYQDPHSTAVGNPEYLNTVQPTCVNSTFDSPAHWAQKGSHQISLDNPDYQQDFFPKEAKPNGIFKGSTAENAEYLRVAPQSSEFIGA

[9] = system: BaF3; test: Antitumor activity against mouse BaF3 cells harboring EGFR L858R/C797S mutant allografted in Balb/c nude mouse assessed as in tumor growth inhibition at 10 mg/kg, po administered twice daily measured on day 20; format: functional; conditions: BaF3, 480 h, time 20 day, read-out: TGI
[10] = Clearance in CD1 mouse at 1 mg/kg, iv administered as single dose measured after 24 hrs by LC-MS/MS analysis; format: ADME, organism-based; conditions: in vivo
[11] = Tmax in CD1 mouse at 10 mg/kg, po administered as single dose measured after 24 hrs by LC-MS/MS analysis; format: ADME, organism-based; conditions: in vivo
[12] = Tlast in CD1 mouse at 1 mg/kg, iv administered as single dose measured after 24 hrs by LC-MS/MS analysis; format: ADME, organism-based; conditions: in vivo
[13] = system: NCI-H292; test: Antiproliferative activity against human NCI-H292 cells assessed as cell growth inhibition; format: functional
[14] = Oral bioavailability in CD1 mouse at 10 mg/kg administered as single dose measured after 24 hrs by LC-MS/MS analysis; format: ADME, organism-based; conditions: in vivo
[15] = AUC (0 to infinity) in CD1 mouse at 1 mg/kg, iv administered as single dose measured after 24 hrs by LC-MS/MS analysis; format: ADME, organism-based; design: time 24 hrs, dose 1 mg/kg, route iv; conditions: in vivo
[16] = AUC(0 to t) in CD1 mouse at 1 mg/kg, iv administered as single dose measured after 24 hrs by LC-MS/MS analysis; format: ADME, organism-based; design: time 24 hrs, dose 1 mg/kg, route iv; conditions: in vivo
[17] = Toxicity in Balb/c nude mouse xenografted with human NCI-H1975 cells harboring EGFR L858R/T790M mutant assessed as change in body weight at 10 mg/kg, po administered twice daily measured after 14 days; format: organism-based; conditions: in vivo, 336 h, time 14 day
[18] = molecular target: Angiotensin-converting enzyme (Homo sapiens, UniProt P12821); test: Inhibition of angiotensin-converting enzyme (unknown origin)
Angiotensin-converting enzyme, sequence (P12821 whole entry): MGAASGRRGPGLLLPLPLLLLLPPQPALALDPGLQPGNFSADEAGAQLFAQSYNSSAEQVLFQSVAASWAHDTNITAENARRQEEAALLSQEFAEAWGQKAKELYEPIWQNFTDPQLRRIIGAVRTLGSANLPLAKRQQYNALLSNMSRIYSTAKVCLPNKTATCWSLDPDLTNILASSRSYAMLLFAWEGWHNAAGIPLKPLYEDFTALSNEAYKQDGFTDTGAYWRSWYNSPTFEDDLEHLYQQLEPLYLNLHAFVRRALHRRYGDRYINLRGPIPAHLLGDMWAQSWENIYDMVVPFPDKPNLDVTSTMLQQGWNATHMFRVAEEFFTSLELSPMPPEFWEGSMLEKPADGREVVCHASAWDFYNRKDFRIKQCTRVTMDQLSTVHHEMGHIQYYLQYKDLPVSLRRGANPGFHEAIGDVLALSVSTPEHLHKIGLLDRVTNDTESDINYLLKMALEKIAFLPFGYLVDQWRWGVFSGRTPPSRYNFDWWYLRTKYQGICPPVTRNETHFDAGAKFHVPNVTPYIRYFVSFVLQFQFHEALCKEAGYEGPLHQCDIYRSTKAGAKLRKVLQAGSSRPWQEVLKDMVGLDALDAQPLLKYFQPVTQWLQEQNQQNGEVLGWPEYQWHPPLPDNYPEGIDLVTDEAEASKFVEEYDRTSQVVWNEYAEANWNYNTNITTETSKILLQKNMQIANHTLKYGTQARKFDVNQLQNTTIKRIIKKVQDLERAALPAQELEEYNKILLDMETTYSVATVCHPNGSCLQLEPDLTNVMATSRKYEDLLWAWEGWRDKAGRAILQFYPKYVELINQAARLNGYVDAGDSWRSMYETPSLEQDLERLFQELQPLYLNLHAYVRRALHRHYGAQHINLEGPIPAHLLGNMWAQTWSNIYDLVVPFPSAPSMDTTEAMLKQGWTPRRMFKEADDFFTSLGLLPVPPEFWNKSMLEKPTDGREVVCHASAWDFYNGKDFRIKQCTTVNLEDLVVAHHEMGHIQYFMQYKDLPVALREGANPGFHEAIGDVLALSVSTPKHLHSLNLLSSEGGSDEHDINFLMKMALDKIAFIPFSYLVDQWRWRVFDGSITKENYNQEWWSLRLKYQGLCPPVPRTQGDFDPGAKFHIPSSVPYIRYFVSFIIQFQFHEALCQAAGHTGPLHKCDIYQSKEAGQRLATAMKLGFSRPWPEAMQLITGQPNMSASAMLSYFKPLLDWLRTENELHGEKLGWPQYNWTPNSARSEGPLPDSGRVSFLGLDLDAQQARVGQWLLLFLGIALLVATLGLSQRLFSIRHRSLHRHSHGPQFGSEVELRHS

[19] = molecular target: T2, Adenosine receptor A3 (Homo sapiens) (UniProt P0DMS8); test: Inhibition of adenosine A3 receptor (unknown origin) at 10 uM relative to control
T2 sequence (whole entry): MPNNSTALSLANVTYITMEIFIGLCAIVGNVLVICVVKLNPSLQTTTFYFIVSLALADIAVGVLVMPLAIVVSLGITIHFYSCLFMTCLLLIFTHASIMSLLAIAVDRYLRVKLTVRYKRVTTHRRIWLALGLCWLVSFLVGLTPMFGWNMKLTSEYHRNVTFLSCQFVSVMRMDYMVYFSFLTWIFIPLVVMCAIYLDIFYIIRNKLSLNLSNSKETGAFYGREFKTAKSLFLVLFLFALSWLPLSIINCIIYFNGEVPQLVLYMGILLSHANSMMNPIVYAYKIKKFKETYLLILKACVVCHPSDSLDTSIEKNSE

[20] = molecular target: T3, Muscarinic acetylcholine receptor M2 (Homo sapiens, UniProt P08172); test: Inhibition of muscarinic M2 receptor (unknown origin)
T3 sequence (P08172 whole entry): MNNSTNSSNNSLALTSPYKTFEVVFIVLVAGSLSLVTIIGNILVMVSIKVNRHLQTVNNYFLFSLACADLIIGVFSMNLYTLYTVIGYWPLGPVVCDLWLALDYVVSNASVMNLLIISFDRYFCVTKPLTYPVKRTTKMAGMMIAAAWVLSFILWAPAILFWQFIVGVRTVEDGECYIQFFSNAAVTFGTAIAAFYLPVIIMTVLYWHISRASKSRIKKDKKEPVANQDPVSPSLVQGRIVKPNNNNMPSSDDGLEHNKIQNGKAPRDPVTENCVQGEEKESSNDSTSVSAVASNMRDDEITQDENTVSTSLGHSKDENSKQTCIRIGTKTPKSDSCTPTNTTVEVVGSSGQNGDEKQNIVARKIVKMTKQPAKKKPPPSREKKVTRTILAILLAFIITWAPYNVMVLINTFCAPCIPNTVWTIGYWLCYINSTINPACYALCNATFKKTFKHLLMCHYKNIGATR

AUC(0-t) at 24 h [1]: 1.79 µg·h/mL | inhibition [2]: 98% | pIC50 [3]: 6.00 | Vd [4]: 10 L/kg | half-life [7]: 6.6 h | pIC50 [8]: 8.70 | clearance [10]: 1.2 L/h/kg | Tmax [11]: 5 h | Tlast [12]: 24 h | GI50 [13]: 0.35 µM | bioavailability [14]: 22% | AUC(0-inf) [15]: 0.871 µg·h/mL | AUC(0-t) at 24 h [16]: 0.803 µg·h/mL | pIC50 [18]: < 5.52 | inhibition [19]: 94% | pIC50 [20]: 5.74
SMILES: Cc1c(C#Cc2ccc(CN3CCC(CO)CC3)cc2)cc(C(F)F)c2cn(C(C(=O)Nc3nccs3)c3ncn4c3CCC43CC3)nc12 (stereo not given)
inhibition in vivo at 10 mg/kg [5]: 100% | Activity [6]: Non-Toxic | inhibition in vivo at 10 mg/kg [9]: 70% | Activity [17]: Non-Toxic
